Paper PMC11930087, “Mobility of four structural regions drives isoform-specific properties of photoenzyme LPOR in plants” (The Journal of Biological Chemistry, 2025)
pKd: −log10 of the molar value.

What was measured:
[1] = biological target: T1, AtPORA (Arabidopsis thaliana, UniProt Q42536); assay: […] K Pchlide fluorescence in darkness, F648/F635 ratio vs NADPH, hyperbolic fit; type: binding; details: lipid-free; 5 μM Pchlide, 15 μM LPOR, pH 7.1, room-temperature dark incubation; apparent parameter, exact value in supplement; read-out: KM^D
T1 construct: gene PORA
T1 sequence (Q42536 70-405): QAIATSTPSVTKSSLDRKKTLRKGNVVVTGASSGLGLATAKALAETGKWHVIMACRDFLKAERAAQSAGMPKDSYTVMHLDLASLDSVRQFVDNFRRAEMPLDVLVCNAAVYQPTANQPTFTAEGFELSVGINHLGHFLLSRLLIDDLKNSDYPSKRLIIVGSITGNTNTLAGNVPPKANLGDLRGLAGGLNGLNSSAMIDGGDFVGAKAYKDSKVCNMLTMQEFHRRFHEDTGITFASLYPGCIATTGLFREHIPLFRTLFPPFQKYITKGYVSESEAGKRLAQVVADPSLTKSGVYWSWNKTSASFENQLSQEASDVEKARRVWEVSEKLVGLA

[2] = biological target: T2, PeaPOR (Lathyrus oleraceus, UniProt Q01289); assay: as above; type: binding; details: lipid-free; 5 μM Pchlide, 15 μM LPOR, pH 7.1, room-temperature dark incubation; apparent parameter, exact value in supplement; read-out: KM^D
T2 construct: gene 3PCR; transit peptide removed; pET15b
T2 sequence (Q01289 65-399): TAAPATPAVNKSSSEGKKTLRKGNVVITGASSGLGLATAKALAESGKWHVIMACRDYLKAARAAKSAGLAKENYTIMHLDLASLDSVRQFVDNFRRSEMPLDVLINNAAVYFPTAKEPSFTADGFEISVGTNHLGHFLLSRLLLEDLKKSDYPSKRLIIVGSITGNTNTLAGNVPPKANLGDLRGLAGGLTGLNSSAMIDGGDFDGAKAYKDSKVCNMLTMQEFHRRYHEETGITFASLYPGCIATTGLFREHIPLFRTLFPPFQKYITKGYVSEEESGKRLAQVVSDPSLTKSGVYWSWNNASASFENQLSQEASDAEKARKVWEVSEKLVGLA

[3] = biological target: T3, AtPORC (Arabidopsis thaliana, UniProt O48741); assay: biochemical; details: 400 uM OPT lipids, 5 uM Pchlide, 15 uM LPOR
T3 construct: gene PORC
T3 sequence (O48741 68-401): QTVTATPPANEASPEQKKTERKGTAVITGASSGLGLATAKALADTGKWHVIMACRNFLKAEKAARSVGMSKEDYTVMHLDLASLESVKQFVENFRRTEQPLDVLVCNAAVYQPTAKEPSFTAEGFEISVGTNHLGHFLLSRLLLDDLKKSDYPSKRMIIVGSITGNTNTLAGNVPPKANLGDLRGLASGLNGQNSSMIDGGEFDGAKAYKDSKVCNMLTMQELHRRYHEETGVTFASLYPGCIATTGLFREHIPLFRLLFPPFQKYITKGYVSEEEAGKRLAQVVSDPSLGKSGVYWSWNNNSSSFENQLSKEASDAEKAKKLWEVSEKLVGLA
Description: (§1) (Figs. 3A, S2). […] The resulting plots resembled saturation curves, to which a hyperbolic function similar to the Michaelis–Menten equation could be fitted (Figs. 3B, S3, Materials and Methods). […] However, KM^L values were consistently lower than KM^D values. […] The addition of 400 μM OPT lipids lowered the KM^D constant for all isoforms, except for SlPOR1, SlPOR3, HaPOR1, HaPOR2, and PeaPOR, where the constant remained unchanged within error estimates. […] Shaded areas represent the SD between replicates. […] A fit of a modified Michaelis–Menten equation is shown, along with the graphical representation of KM^D (B) or KM^L (C). Spectra corresponding to the given F648/F635 values (B) or F Chlide/F Pchlide values (C) are shown on the right side of the plot. D, relationship between KM^D and KM^L for investigated isoforms. The overall distribution of data points is shown in gray. Error bars represent the uncertainty associated with the fitted constant KM^x. Closed symbols represent constants determined for samples not supplemented with lipids, while open symbols these determined in the presence of 400 μM OPT lipids. LPOR, light-dependent protochlorophyllide oxidoreductase; Pchlide, protochlorophyllide; Chlide, chlorophyllide.

[4] = biological target: T4, HaPOR1 (Helianthus annuus, UniProt A0A251T841); assay: biochemical; details: 400 uM OPT lipids, 5 uM Pchlide, 15 uM LPOR
T4 construct: gene PORA; transit peptide removed; pET15b
T4 sequence (A0A251T841 64-398): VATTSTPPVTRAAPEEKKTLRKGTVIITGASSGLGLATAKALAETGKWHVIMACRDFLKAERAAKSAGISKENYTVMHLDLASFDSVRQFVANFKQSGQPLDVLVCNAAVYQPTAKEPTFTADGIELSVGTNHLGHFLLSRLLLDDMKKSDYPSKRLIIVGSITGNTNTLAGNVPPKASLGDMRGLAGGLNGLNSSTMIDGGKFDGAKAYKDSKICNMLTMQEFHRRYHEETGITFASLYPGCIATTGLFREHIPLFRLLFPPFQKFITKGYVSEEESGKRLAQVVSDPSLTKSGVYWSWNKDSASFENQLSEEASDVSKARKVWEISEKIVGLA
Description: as §1

[5] = biological target: T5, HaPOR2 (Helianthus annuus, UniProt A0A251TWA4); assay: biochemical; details: 5 uM Pchlide, 15 uM LPOR
T5 construct: gene PORA; transit peptide removed; pET15b
T5 sequence (A0A251TWA4 53-387): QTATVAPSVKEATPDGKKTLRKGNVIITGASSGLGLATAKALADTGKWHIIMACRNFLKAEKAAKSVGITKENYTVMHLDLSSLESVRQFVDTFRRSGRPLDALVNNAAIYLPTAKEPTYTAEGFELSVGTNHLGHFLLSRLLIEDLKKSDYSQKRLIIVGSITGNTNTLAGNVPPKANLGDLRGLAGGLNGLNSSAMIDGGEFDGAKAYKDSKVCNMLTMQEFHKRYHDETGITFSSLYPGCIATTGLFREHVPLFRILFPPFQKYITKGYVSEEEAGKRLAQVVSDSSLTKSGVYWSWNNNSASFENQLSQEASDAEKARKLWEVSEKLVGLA
Description: as §1

[6] = biological target: T2, PeaPOR; assay: biochemical; details: 5 uM Pchlide, 15 uM LPOR
Description: as §1

[7] = biological target: T6, TaPOR1 (Triticum aestivum, UniProt Q41578); assay: biochemical; details: 5 uM Pchlide, 15 uM LPOR
T6 construct: gene PORA
T6 sequence (Q41578 75-388): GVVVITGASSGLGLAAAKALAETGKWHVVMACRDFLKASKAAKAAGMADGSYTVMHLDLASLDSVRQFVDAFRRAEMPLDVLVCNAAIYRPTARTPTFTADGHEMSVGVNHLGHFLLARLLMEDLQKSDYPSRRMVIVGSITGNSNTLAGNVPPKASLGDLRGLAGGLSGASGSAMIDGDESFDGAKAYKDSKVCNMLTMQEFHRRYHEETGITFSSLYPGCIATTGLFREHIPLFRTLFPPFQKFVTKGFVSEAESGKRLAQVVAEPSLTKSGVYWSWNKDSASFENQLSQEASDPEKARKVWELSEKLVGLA
Description: as §1

pKd [1]: < 4.00
pKd [2]: > 5.00
Michaelis-like constant in the dark (KM^D) [3]: 0.8 µM
apparent Michaelis constant KM^D (dark) [4]: 16.9 µM
Dark Michaelis-like constant (KM^D) ([5]; 400 uM OPT lipids): 2.2 µM
apparent Michaelis constant in the dark (KM^D) ([5]; no lipids): 9.4 µM
apparent Michaelis constant in the dark (KM^D) ([6]; 400 uM OPT lipids): 4.7 µM
Michaelis constant in the dark (KM^D) ([6]; no lipids): 10.8 µM
Km (apparent, dark, KM^D) ([7]; 400 uM OPT lipids): 45.8 µM
apparent Michaelis constant (KM^D) ([7]; no lipids, dark): 394 µM
SMILES: NC(=O)C1=CN([C@@H]2O[C@H](COP(=O)(O)OP(=O)(O)OC[C@H]3O[C@@H](n4cnc5c(N)ncnc54)[C@H](OP(=O)(O)O)[C@@H]3O)[C@@H](O)[C@H]2O)C=CC1 [NADPH]
